This assay addresses T1, Adipose triglyceride lipase (ATGL) (Mus musculus, UniProt Q8BJ56).
T1 sequence (Q8BJ56 1-486): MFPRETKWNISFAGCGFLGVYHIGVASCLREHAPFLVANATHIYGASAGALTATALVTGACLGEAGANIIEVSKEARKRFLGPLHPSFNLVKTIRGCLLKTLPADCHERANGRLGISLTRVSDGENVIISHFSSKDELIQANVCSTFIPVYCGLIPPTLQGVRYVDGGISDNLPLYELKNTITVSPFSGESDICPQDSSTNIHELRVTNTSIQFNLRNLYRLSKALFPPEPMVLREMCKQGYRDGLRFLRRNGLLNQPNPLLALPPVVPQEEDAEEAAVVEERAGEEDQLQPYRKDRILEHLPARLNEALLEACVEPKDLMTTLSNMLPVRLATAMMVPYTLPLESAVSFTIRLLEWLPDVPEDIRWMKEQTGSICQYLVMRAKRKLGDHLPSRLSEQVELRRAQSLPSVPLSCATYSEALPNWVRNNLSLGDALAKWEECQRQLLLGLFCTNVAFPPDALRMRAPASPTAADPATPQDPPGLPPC
T1 sequence (Q9DBL9 1-351 partner): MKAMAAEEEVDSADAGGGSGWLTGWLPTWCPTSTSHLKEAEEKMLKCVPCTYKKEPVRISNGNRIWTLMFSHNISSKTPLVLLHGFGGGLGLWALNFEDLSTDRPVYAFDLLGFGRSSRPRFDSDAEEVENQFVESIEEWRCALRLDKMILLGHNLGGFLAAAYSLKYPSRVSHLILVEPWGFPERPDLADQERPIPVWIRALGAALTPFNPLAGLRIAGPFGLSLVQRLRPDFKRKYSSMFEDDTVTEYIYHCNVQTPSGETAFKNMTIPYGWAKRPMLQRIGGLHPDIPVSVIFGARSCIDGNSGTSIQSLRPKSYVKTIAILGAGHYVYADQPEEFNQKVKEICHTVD
In kind it is biochemical.

As to `CN(C)C(=O)Nc1cccc(-c2ccc(N(C)C)cc2)c1` [compound 4, Atglistatin], the inhibition constant Ki came out at 0.355 ± 0.048 µM.

Usually Ki stands for a measure of affinity in units of concentration, obtained from inhibition or displacement. A low value points to tighter binding.

The values are drawn from paper PMC3829776 (Nature chemical biology, 2013).
